# ChEMBL document CHEMBL3526058, “Investigating the enteroenteric recirculation of apixaban, a factor Xa inhibitor: administration of activated charcoal to bile duct-cannulated rats and dogs receiving an intravenous dose and use of drug transporter knockout rats” (Drug Metab Dispos, 2013)
# Experiments:
# [1] = Half life in beagle dog at 5 mg/kg, po; assay type: ADME, organism-based, Canis lupus familiaris; set-up: dose 5 mg/kg, route oral; conditions: in vivo
# [2] = Half life in BCRP-knockout Sprague-Dawley rat at 4 mg/kg, po; assay type: ADME, organism-based; set-up: dose 4 mg/kg, route oral; conditions: in vivo
# [3] = Apparent oral clearance in P-gp-knockout Sprague-Dawley rat at 4 mg/kg, po; assay type: ADME, organism-based; set-up: dose 4 mg/kg, route oral; conditions: in vivo
# [4] = Mean residence time in beagle dog at 5 mg/kg, po; assay type: ADME, organism-based, Canis lupus familiaris; set-up: dose 5 mg/kg, route oral; conditions: in vivo
# [5] = Oral steady-state volume of distribution in beagle dog at 5 mg/kg; assay type: ADME, organism-based, Canis lupus familiaris; set-up: dose 5 mg/kg; conditions: in vivo, read-out: Vss/F
# [6] = Oral bioavailability in beagle dog at 5 mg/kg followed by activated charcoal administration 0.25 hrs post compound dosing; assay type: ADME, organism-based, Canis lupus familiaris; conditions: in vivo
# [7] = Oral bioavailability in beagle dog at 5 mg/kg; assay type: ADME, organism-based, Canis lupus familiaris; conditions: in vivo
# [8] = Oral bioavailability in P-gp-knockout Sprague-Dawley rat at 4 mg/kg; assay type: ADME, organism-based; conditions: in vivo
# [9] = Mean residence time in BCRP-knockout Sprague-Dawley rat at 4 mg/kg, po; assay type: ADME, organism-based; set-up: dose 4 mg/kg, route oral; conditions: in vivo
# [10] = Mean residence time in beagle dog at 5 mg/kg, po followed by activated charcoal administration 0.25 hrs post compound dosing; assay type: ADME, organism-based, Canis lupus familiaris; set-up: dose 5 mg/kg, route oral; conditions: in vivo
# [11] = Oral steady-state volume of distribution in beagle dog at 5 mg/kg followed by activated charcoal administration 0.25 hrs post compound dosing; assay type: ADME, organism-based, Canis lupus familiaris; set-up: dose 5 mg/kg; conditions: in vivo, read-out: Vss/F
# Canis familiaris = species: Canis familiaris; experiment: Plasma clearance in dog relative to hepatic blood flow; assay type: ADME, organism-based, Canis lupus familiaris; conditions: in vivo
# [12] = Oral steady-state volume of distribution in wild-type Sprague-Dawley rat at 4 mg/kg; assay type: ADME, organism-based; set-up: dose 4 mg/kg; conditions: in vivo, read-out: Vss/F
# [13] = AUC (0 to infinity) in P-gp-knockout Sprague-Dawley rat at 4 mg/kg, po; assay type: ADME, organism-based; set-up: time infinity, dose 4 mg/kg, route oral; conditions: plasma
# [14] = AUC (0 to 24 hrs) in beagle dog at 5 mg/kg, po followed by activated charcoal administration 0.25 hrs post compound dosing; assay type: ADME, organism-based, Canis lupus familiaris; set-up: time < 24 hr, dose 5 mg/kg, route oral; conditions: plasma
# [15] = Apparent oral clearance in beagle dog at 5 mg/kg, po followed by activated charcoal administration 3 hrs post compound dosing; assay type: ADME, organism-based, Canis lupus familiaris; set-up: dose 5 mg/kg, route oral; conditions: in vivo
# [16] = Oral bioavailability in beagle dog at 5 mg/kg followed by activated charcoal administration 1 hr post compound dosing; assay type: ADME, organism-based, Canis lupus familiaris; conditions: in vivo
# [17] = Oral bioavailability in BCRP-knockout Sprague-Dawley rat at 4 mg/kg; assay type: ADME, organism-based; conditions: in vivo
# [18] = Plasma concentration in beagle dog at 5 mg/kg, po followed by activated charcoal administration 1 hr post compound dosing measured at 8 hrs; assay type: ADME, organism-based, Canis lupus familiaris; set-up: dose 5 mg/kg, route oral
# [19] = Mean residence time in beagle dog at 5 mg/kg, po followed by activated charcoal administration 3 hrs post compound dosing; assay type: ADME, organism-based, Canis lupus familiaris; set-up: dose 5 mg/kg, route oral; conditions: in vivo
# [20] = Cmax in P-gp-knockout Sprague-Dawley rat at 4 mg/kg, po; assay type: ADME, organism-based; set-up: dose 4 mg/kg, route oral; conditions: in vivo
# [21] = AUC (0 to infinity) in Sprague-Dawley rat at 4 mg/kg, po administered 1 hr post GF-120918 treatment; assay type: ADME, organism-based; set-up: time infinity, dose 4 mg/kg, route oral; conditions: plasma, with GF-120918
# [22] = Mean residence time in beagle dog at 5 mg/kg, po followed by activated charcoal administration 1 hr post compound dosing; assay type: ADME, organism-based, Canis lupus familiaris; set-up: dose 5 mg/kg, route oral; conditions: in vivo
# [23] = Cmax in beagle dog at 5 mg/kg, po followed by activated charcoal administration 1 hr post compound dosing; assay type: ADME, organism-based, Canis lupus familiaris; set-up: dose 5 mg/kg, route oral; conditions: in vivo
# [24] = AUC (0 to 24 hrs) in beagle dog at 5 mg/kg, po followed by activated charcoal administration 3 hrs post compound dosing; assay type: ADME, organism-based, Canis lupus familiaris; set-up: time < 24 hr, dose 5 mg/kg, route oral; conditions: plasma
# Homo sapiens = experiment: Volume of distribution in human administered bid orally; assay type: ADME, organism-based; conditions: in vivo, po
# [25] = Oral steady-state volume of distribution in Sprague-Dawley rat at 4 mg/kg administered 1 hr post GF-120918 treatment; assay type: ADME, organism-based; set-up: dose 4 mg/kg; conditions: in vivo, with GF-120918, read-out: Vss/F
# [26] = Plasma concentration in beagle dog at 5 mg/kg, po followed by activated charcoal administration 3 hrs post compound dosing measured at 8 hrs; assay type: ADME, organism-based, Canis lupus familiaris; set-up: dose 5 mg/kg, route oral
# [27] = Cmax in Sprague-Dawley rat at 4 mg/kg, po administered 1 hr post GF-120918 treatment; assay type: ADME, organism-based; set-up: dose 4 mg/kg, route oral; conditions: in vivo, with GF-120918
# [28] = Oral steady-state volume of distribution in P-gp-knockout Sprague-Dawley rat at 4 mg/kg; assay type: ADME, organism-based; set-up: dose 4 mg/kg; conditions: in vivo, read-out: Vss/F
# [29] = AUC (0 to 24 hrs) in beagle dog at 5 mg/kg, po followed by activated charcoal administration 1 hr post compound dosing; assay type: ADME, organism-based, Canis lupus familiaris; set-up: time < 24 hr, dose 5 mg/kg, route oral; conditions: plasma
# [30] = Cmax in wild-type Sprague-Dawley rat at 4 mg/kg, po; assay type: ADME, organism-based; set-up: dose 4 mg/kg, route oral; conditions: in vivo
structure (smiles),measurement,setting,value
COc1ccc(-n2nc(C(N)=O)c3c2C(=O)N(c2ccc(N4CCCCC4=O)cc2)CC3)cc1,half-life,[1],5.7 h
same,half-life,[2],2.5 h
same,CL/F,[3],10 mL/min/kg
same,MRT,[4],8.5 h
same,Vd/F,[5],0.5 L/kg
same,bioavailability,[6],92%
same,bioavailability,[7],93%
same,bioavailability,[8],71%
same,MRT,[9],2.9 h
same,MRT,[10],6.4 h
same,Vd/F,[11],0.5 L/kg
same,CL,Canis familiaris,< 5%
same,Vd/F,[12],5.8 L/kg
same,AUC(0-inf),[13],3340 ng·h/mL
same,AUC(0-t) at 24 h,[14],59500 ng·h/mL
same,CL/F,[15],1.68 mL/min/kg
same,bioavailability,[16],99%
same,bioavailability,[17],122%
same,concentration at 8 h,[18],3380 ng/mL
same,MRT,[19],5.3 h
same,Cmax,[20],940 ng/mL
same,AUC(0-inf),[21],6570 ng·h/mL
same,MRT,[22],5.9 h
same,Cmax,[23],8990 ng/mL
same,AUC(0-t) at 24 h,[24],49200 ng·h/mL
same,Vd,Homo sapiens,0.3 L/kg
same,Vd/F,[25],0.7 L/kg
same,concentration at 8 h,[26],2190 ng/mL
same,Cmax,[27],2870 ng/mL
same,Vd/F,[28],2.4 L/kg
same,AUC(0-t) at 24 h,[29],63900 ng·h/mL
same,Cmax,[30],420 ng/mL
